Laboratory results from US12398141B2 (SHANGHAI SYNERGY PHARMACEUTICAL SCIENCES CO., LTD, priority 2019, dated 2025).

Key:
[1] = Pharmacokinetic test after intragastric administration; type: in vivo; conditions: Sprague-Dawley, mouse, plasma, po, SD mice, 5 mg/kg intragastric; for AUC(0-t): read-out: Area under the curve (AUC0-24, ng/ml · h); for Cmax: read-out: Plasma concentration (Cmax, ng/ml); for half-life: read-out: half life (T1/2, h) (converted)
Protocol: Drug concentrations of compounds H01, H07, H11, H12, H14, H15, H22, H25, H29, H30, H33, H39 and H44 intragastrically administrated in plasma by using LC/MS/MS method at various time points were determined by using Sprague-Dawley (SD) […], aged 7-8 weeks and weighing […] as test animals. Pharmacokinetic behavior of the compounds of the invention in […] was studied and its pharmacokinetic characteristics were evaluated.
A certain amount of compounds was taken and dissolved in 50% PEG400/water to prepare a uniform solution.
Mice were administered intragastrically with the above compounds with a dosage of 5 mg/kg. Blood (0.2 ml) was taken from orbits before administration and 0.083 h, 0.25 h, 0.5 h, 1.0 h, 2.0 h, 4.0 h, 6.0 h, 8.0 h, 12.0 h and 24.0 h after administration. The blood was placed in anticoagulant tubes containing dipotassium ethylene glycol diethyl ether diamine tetraacetic acid, centrifugated at 6000 rpm at 4° C. for 10 minutes to separate plasma and saved at −80° C.
50 μL plasma at various time was taken and 150 μL acetonitrile solution containing internal standard tolbutamide (Sigma, USA) was added, mixed and stirred for 5 minutes. After centrifugation for 5 minutes at 12,000 rpm, 100 μL supernatant was taken, mixed with 200 μL water, following by sample injection and analysis.
Liquid chromatogram system was LC-20AD UFLC High Performance Liquid Chromatography system. Mass spectrum system was AB Sciex API4000 triple quadrupole mass spectrometer equipped with Electron Spray Ionization (ESI) (Applied Biosystems, Canada). A software for controlling liquid chromatography-mass spectrometry and quantitative analysis was Anna Rust 1.6 (Applied Biosystems, Canada). Pharmacokinetic parameters were analyzed by WinNonlin (version 5.2, Pharsight, Mountain View, […]) non-compartment model.
The test compound was dissolved in dimethyl sulfoxide to prepare a stock solution with a concentration of 1 mg/mL. The solution was diluted with 50% acetonitrile to obtain a series of standard working solutions with concentrations of 10 μg/mL, 3 μg/mL, 1 μg/mL, 0.3 μg/mL, 0.1 μg/mL, 0.03 μg/mL and 0.01 μg/mL, and a series of standard quality control solutions with concentrations of 8 μg/mL, 0.5 μg/mL, 0.03 μg/mL. 5 μL standard solution was mixed with 45 μL blank plasma substrate uniformly to obtain standard solutions of each concentration of a standard curve (1000 ng/mL, 500 ng/mL, 200 ng/mL, 100 ng/mL, 10 ng/mL, 5 ng/mL, 2 and 1 ng/mL) and quality control solutions (plasma samples: 800 ng/mL, 50 and 3 ng/mL).
Internal standard tolbutamide solid powder was dissolved in dimethyl sulfoxide to prepare a 1 mg/mL stock solution. The stock solution was diluted with 100% acetonitrile to obtain 200 ng/mL solution as a protein precipitation solution.

[2] = target: hERG potassium channel (Homo sapiens (Human), UniProt Q12809); assay: hERG potassium channel current, manual patch clamp; type: cell-based; conditions: HEK293 cells overexpressing hERG potassium channel, whole-cell patch clamp; read-out: IC50 (μM) inhibiting hERG current
Sequence of hERG potassium channel (Q12809 whole entry): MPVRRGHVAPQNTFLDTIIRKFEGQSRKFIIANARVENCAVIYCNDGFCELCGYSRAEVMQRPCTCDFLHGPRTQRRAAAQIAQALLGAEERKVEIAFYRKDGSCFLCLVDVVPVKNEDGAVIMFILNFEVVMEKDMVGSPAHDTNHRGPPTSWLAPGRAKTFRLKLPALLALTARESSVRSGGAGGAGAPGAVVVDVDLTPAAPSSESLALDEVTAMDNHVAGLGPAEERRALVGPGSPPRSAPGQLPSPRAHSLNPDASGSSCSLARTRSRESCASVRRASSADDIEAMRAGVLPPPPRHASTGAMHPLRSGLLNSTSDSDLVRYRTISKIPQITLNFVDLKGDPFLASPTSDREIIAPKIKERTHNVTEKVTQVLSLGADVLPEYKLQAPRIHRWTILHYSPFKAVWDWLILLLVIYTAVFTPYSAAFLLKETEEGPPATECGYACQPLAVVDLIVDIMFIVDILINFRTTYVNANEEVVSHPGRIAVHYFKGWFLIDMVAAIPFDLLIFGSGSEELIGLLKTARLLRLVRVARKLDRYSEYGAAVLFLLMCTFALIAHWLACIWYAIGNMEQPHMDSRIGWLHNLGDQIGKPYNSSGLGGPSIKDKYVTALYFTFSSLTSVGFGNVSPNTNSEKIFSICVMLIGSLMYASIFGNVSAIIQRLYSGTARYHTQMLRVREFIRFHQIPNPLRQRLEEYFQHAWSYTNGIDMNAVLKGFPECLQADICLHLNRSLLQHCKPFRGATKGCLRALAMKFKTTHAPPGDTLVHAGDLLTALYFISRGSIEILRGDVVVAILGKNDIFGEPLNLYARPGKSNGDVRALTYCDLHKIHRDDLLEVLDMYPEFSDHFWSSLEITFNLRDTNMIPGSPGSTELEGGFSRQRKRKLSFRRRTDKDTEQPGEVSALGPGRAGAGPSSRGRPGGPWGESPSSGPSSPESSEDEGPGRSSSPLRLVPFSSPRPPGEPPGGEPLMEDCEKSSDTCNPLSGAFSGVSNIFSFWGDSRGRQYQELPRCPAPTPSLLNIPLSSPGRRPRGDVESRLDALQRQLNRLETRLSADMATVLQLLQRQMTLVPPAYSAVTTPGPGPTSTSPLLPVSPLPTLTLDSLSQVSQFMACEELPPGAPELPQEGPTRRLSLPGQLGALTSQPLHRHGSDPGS
Protocol: Effects of compounds H07, H12, H14, H25, H30, H39 and H44 on hERG potassium channel were detected by applying electrophysiological manual patch clamp to study an initial cardiac safety of the compounds of the invention.
Test compounds were dissolved in dimethyl sulfoxide to prepare mother solutions (10 mM, 3.3 mM, 1.1 mM and 0.37 mM). Next an extracellular fluid was used for secondary dilution so that the test solution had final concentrations of 30 μM, 10 μM, 3.3 μM, 1.1 μM and 0.37 μM.
Extracellular fluids: 130 mM sodium chloride, 4 mM potassium chloride, 1.8 mM calcium chloride, 1 mM magnesium chloride, 10 mM glucose, 10 mM 4-hydroxyethylpiperazine ethane sulfonic acid (pH 7.4)
Intracellular fluid: 130 mM potassium chloride, 1 mM magnesium chloride, 5 mM ethylene glycol diethyl ether diamine tetraacetic acid, 5 mM triphosadenine and 10 mM 4-hydroxyethylpiperazine ethane sulfonic acid (pH7.2)
Compositions of a cell culture medium: Dulbecco's modified eagle medium (Grand Turk Island Biotechnology Company, 11330032), 15% fetal calf serum (Sigma, A15-101, USA), 1% penicillin-streptomycin (Biowest, L0022-100).
HEK293 cells overexpressing hERG potassium channel (from Dr. Mohamed Boutjdir's laboratory, School of Medicine, New York University—PharmaCore Labs, Inc.) were incubated in a medium consisting of Dulbecco's modified eagle medium/15% fetal calf serum/1% penicillin-streptomycin in a 5% CO2 incubator at 37° C. In the test, the cells were transferred to a cell bath embedded into a inverted microscope platform, and extracellular fluid was perfused. After stabilization for 5 minutes, the cells were precipitated and then the test could start. Membrane currents were recorded by using HEKA EPC-10 patch clamp amplifier and […] acquisition system (HEKA Instrument Co., Ltd., D-67466 Lambrcht, Palatinate, Germany). All tests were completed at room temperature (22-24° C.). P-97 microelectrode puller (Sutter Instrument Company, Novato, […] 94949) was used to straighten the electrodes (BF150-110-10). The inner diameter of the electrode was 1-1.5 mm, and the water resistance after internal liquid filling was 2-4 MΩ.
Tests were carried out in whole-cell recording mode, with current values recorded according to the electrophysiological stimulation protocol below. First, the membrane voltage was clamped at −80 mV, and the cells were stimulated with +20 mV for two seconds to activate hERG potassium channel, which was then repolarized to −50 mV for five seconds, producing an outward tail current with a stimulation frequency of every 15 seconds. The current value was a peak value of the tail current. In the test, the channel current was recorded in the whole-cell recording mode. First, extracellular fluid (about 2 ml per minute) was perfused and recorded continuously, and then the current was allowed to stabilize (current decay (run-down) was less than 5% within 5 minutes). At this time, the peak value of the tail current was the control current value. Subsequently, the extracellular fluid containing the drug to be tested was perfused and recorded continuously until the inhibiting effect of drug on hERG current reached a stable state, at which time the peak value of the tail current was the current value after adding drugs. After a stable situation was achieved, if hERG current recovered after perfusing and washing with extracellular fluid, perfusion could be continued to test other concentrations or drugs. The solution containing the drugs to be tested was perfused in descending order of concentration and the current values were recorded. […] V2X60 (HEKA Instrument Co., Ltd., D-67466 Lambrcht, Palatinate, Germany) was used to collect data. ORANGE 8.5 (ORANGE Laboratory Company, Northampton, UK) software was used for the analysis and statistics.

[3] = target: JAK2 (Homo sapiens (Human), UniProt O60674); assay: JAK2 LANCE Ultra kinase assay; type: biochemical; conditions: 12 uM ATP
Sequence of JAK2 (O60674 whole entry): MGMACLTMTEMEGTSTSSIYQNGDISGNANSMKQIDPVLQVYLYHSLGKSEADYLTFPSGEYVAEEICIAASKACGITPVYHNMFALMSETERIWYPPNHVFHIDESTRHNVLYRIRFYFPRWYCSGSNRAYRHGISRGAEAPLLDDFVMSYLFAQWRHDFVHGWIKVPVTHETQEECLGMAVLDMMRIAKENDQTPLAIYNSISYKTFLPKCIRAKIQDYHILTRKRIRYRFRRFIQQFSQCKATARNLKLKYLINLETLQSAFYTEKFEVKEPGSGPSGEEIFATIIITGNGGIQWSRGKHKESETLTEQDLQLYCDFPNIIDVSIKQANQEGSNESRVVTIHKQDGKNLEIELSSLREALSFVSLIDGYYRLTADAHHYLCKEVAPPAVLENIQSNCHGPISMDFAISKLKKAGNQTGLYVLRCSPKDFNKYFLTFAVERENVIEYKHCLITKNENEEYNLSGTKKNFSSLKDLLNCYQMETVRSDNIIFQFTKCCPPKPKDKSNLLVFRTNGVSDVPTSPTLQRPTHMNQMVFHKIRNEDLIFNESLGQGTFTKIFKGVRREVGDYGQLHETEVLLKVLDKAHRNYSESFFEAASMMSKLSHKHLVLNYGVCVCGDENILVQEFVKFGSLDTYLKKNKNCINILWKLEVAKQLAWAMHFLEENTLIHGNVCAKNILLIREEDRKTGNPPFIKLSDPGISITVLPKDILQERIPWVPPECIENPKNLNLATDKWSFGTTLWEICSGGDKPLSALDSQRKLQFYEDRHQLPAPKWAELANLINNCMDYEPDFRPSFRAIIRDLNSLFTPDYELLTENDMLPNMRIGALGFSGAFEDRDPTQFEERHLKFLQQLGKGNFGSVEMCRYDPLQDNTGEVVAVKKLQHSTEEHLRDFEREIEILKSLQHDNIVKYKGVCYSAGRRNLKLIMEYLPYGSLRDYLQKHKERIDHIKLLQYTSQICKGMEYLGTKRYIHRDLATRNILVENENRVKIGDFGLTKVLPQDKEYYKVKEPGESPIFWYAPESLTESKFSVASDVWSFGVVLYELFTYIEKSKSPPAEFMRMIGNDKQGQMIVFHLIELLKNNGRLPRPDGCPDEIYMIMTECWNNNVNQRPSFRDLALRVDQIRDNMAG

[4] = target: JAK3 (Homo sapiens (Human), UniProt P52333); assay: JAK3 LANCE Ultra kinase assay; type: biochemical; conditions: 4 uM ATP
Sequence of JAK3 (P52333 whole entry): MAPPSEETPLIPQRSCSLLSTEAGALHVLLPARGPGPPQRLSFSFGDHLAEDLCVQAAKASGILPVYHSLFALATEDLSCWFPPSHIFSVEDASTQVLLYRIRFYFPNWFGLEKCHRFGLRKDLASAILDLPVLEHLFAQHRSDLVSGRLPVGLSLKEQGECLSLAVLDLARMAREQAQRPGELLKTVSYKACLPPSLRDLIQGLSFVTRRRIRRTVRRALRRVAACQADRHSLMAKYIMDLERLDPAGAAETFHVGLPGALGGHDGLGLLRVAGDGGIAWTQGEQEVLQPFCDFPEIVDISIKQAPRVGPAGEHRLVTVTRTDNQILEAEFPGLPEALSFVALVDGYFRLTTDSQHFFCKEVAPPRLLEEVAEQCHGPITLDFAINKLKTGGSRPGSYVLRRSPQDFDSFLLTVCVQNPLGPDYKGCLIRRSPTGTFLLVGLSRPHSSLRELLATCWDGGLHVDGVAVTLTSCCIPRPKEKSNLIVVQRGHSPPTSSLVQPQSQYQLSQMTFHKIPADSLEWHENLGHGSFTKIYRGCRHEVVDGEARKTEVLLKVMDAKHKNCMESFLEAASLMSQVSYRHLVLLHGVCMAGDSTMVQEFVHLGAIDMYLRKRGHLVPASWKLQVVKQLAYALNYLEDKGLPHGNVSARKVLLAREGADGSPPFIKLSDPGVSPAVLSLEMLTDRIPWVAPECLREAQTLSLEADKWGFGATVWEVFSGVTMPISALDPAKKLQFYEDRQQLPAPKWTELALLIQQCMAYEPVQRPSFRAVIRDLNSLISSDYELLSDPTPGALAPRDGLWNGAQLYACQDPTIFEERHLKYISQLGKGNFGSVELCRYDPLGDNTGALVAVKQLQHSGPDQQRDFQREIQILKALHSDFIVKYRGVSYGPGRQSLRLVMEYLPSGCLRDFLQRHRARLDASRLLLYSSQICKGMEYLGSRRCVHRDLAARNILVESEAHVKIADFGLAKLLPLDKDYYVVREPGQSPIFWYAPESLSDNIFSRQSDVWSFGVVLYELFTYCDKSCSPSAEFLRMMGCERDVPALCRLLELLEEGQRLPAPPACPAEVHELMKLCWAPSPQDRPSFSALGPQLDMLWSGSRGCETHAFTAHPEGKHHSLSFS

| Compound | AUC(0-t) [1] [ng·h/mL] | Cmax [1] [ng/mL] | half-life [1] [h] | IC50 [3] [nM] | IC50 [4] [nM] | IC50 [2] [µM] |
| --- | --- | --- | --- | --- | --- | --- |
| C[C@@H]1CCN(C(=O)CC#N)C[C@@H]1N(C)c1c(C#N)cnc2[nH]ccc12 [Compound H11, 4-{[(3R,4R)-1-(2-cyanoacetyl)-4-methylpiperidin-3-yl]-methyl-amino}-1H-pyrrolo[2,3-b]pyridin-5-carbonitrile] | 2620 ± 10 | 428 ± 32 | 8.53 ± 0.67 | 9.86 | 77 |  |
| N#Cc1cnc2[nH]ccc2c1N[C@H]1C[C@@H](NS(=O)(=O)CCC(F)(F)F)C1 [Compound H12, (cis)-4-{[3-(3,3,3-trifluoropropanesulfonamido)-cyclobutyl-1-yl]-amino}-1H-pyrrolo[2,3-b]pyridin-5-carbonitrile] | 1020 ± 266 | 644 ± 82 | 4.23 ± 0.47 | 7.63 | 66 | > 30 |
| CCCS(=O)(=O)N[C@H]1C[C@@H](N(C)c2c(C#N)cnc3[nH]ccc23)C1 [Compound H14, (cis)-4-{[3-(propanesulfonamido)-cyclobutyl-1-yl]-methyl-amino}-1H-pyrrolo[2,3-b]pyridin-5-carbonitrile] | 915 ± 240 | 438 ± 24 | 2.11 ± 0.16 | 9.95 | 34.2 | > 30 |
| CN(c1c(C#N)cnc2[nH]ccc12)[C@H]1C[C@@H](NS(=O)(=O)CCC(F)(F)F)C1 [Compound H15, (cis)-4-{[3-(3,3,3-trifluoropropanesulfonamide)-cyclobutyl-1-yl]-methyl-amino}-1H-pyrrolo[2,3-b]pyridin-5-carbonitrile] | 1520 ± 241 | 518 ± 24 | 5.11 ± 0.16 | 16.6 | 244 |  |
| COc1nsc(NC(=O)N[C@H]2C[C@@H](N(C)c3c(C#N)cnc4[nH]ccc34)C2)n1 [Compound H29, (cis)-1-(3-((5-cyano-1H-pyrrolo[2,3-b]pyridin-4-yl)(methyl)amino)cyclobutyl)-3-(3-methoxy-1,2,4-thiadiazole-5-yl)urea] | 1530 ± 176 | 522 ± 23 | 4.43 ± 0.32 | 6.8 | 60 |  |
| N#Cc1cnc2[nH]ccc2c1N1CC2CN(C(=O)NCC(F)(F)F)CC21 (centres unmarked) [Compound H39, 6-(5-cyano-1H-pyrrolo[2,3-b]pyridin-4-yl)-N-(2,2,2-trifluoroethyl)-3,6-diazabicyclo[3.2.0]heptane-3-carboxamide] | 1560 ± 230 | 574 ± 64 | 4.65 ± 0.15 | 21 | 150 | > 30 |

The next lines start with results.

| AUC(0-t) [1] [ng·h/mL] | Cmax [1] [ng/mL] | half-life [1] [h] | IC50 [3] [nM] | IC50 [4] [nM] | Compound | IC50 [2] [µM] |
| --- | --- | --- | --- | --- | --- | --- |
| 1920 ± 20 | 578 ± 43 | 4.62 ± 0.87 |  |  | COc1nsc(NC(=O)N2C[C@H]3C[C@H](N(C)c4c(C#N)cnc5[nH]ccc45)C[C@H]3C2)n1 [Compound H07, (3aR,5s,6aS)-4-({2-[(3-methoxy-1,2,4-thiadiazole-5-yl)carbamoyl]-hexahydrocyclopenta[c]pyrrole-5-yl}-methyl-amino)-1H-pyrrolo[2,3-b]pyridin-5-carbonitrile] | > 30 |
| 757 ± 169 | 213 ± 22 | 3.11 ± 0.64 | 5.8 | 58 | CN(c1c(C#N)cnc2[nH]ccc12)[C@H]1C[C@@H]2CN(C(=O)NCC(F)(F)F)C[C@@H]2C1 [Compound H22, (3aR,5s,6aS)-4-({2-[(2,2,2-trifluoroethyl)-carbamoyl]-hexahydrocyclopenta[c]pyrrole-5-yl}-methyl-amino)-1H-pyrrolo[2,3-b]pyridin-5-carbonitrile] |  |
| 1270 ± 231 | 501 ± 17 | 4.67 ± 0.23 | 6.7 | 58 | CN(c1c(C#N)cnc2[nH]ccc12)[C@H]1C[C@@H]2CN(C(=O)Nc3ccc(Cl)c(C(F)(F)F)c3)C[C@@H]2C1 [Compound H25, (3aR,5s,6aS)-N-(4-chloro-3-(trifluoromethyl)phenyl)-5-((5-cyano-1H-pyrrolo[2,3-b]pyridin-4-yl)(methyl)amino)hexahydrocyclopentadiene[c]pyrrole-2(1H)-carboxamide] | > 30 |
| 923 ± 263 | 433 ± 16 | 2.47 ± 0.46 | 6.4 | 76 | CC(C)c1nsc(NC(=O)N2C[C@H]3C[C@H](N(C)c4c(C#N)cnc5[nH]ccc45)C[C@H]3C2)n1 [Compound H30, (3aR,5s,6aS)-4-({2-[(3-isopropyl-1,2,4-thiadiazole-5-yl)carbamoyl]-hexahydrocyclopenta[c]pyrrole-5-yl}-methyl-amino)-1H-pyrrolo[2,3-b]pyridin-5-carbonitrile] | > 30 |
| 1820 ± 173 | 440 ± 89 | 8.64 ± 0.23 | 5.7 | 40 | CN(C)c1nsc(NC(=O)N2C[C@H]3C[C@H](N(C)c4c(C#N)cnc5[nH]ccc45)C[C@H]3C2)n1 [Compound H33, (3aR,5s,6aS)-4-({2-[(3-dimethylamino-1,2,4-thiadiazole-5-yl)carbamoyl]-hexahydrocyclopenta[c]pyrrole-5-yl}-methyl-amino)-1H-pyrrolo[2,3-b]pyridin-5-carbonitrile] |  |
